Values after ≈ are worked out from the molar mass of the structure shown.
Columns and labels:
[1] = molecular target: T1, Nuclear receptor subfamily 1 group I member 2 (Homo sapiens, UniProt O75469); experiment: Transactivation of human PXR expressed in human HepG2 cells by luciferase reporter gene assay; assay type: cell-based
T1 sequence (O75469 whole entry): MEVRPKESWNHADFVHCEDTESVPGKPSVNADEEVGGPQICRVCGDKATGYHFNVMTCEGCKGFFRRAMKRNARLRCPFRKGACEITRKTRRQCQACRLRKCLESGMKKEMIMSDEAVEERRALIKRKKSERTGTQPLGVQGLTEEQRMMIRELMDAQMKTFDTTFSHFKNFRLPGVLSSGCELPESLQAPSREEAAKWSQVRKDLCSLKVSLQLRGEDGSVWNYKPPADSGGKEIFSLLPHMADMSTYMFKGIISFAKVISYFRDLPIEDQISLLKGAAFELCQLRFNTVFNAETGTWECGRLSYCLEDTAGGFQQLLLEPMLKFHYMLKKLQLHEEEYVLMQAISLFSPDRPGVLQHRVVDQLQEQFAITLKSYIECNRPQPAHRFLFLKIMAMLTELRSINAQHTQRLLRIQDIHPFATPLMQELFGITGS

[2] = AUC (0 to 4 hrs) in rat at 5 mg/kg, iv; assay type: ADME, organism-based; design: time < 4 hr, dose 5 mg/kg, route intravenous; conditions: plasma
[3] = AUC (0 to 4 hrs) in rat at 10 mg/kg, po; assay type: ADME, organism-based; design: time < 4 hr, dose 10 mg/kg, route oral; conditions: plasma
Liver microsome [4] = conditions: human, microsomes
[5] = Cytotoxicity against human HuH7 cells by Alamar blue assay; assay type: cell-based; conditions: Huh-7 cells
Hepatitis C virus [6] = experiment: Antiviral activity against Hepatitis C virus Con1 genotype 1b infected in human HuH7 cells after 3 days by FRET assay in presence of 40% human serum; assay type: functional, organism-based, Hepacivirus hominis; conditions: isolate Con1, Huh-7, 72 h
[7] = Drug uptake in rat liver at 5 mg/kg, iv after 4 hrs; assay type: ADME, organism-based; design: dose 5 mg/kg, route intravenous; conditions: read-out: Drug uptake
Hepatitis C virus [8] = experiment: Antiviral activity against Hepatitis C virus Con1 genotype 1b infected in human HuH7 cells after 3 days by FRET assay; assay type: functional, organism-based, Hepacivirus hominis; conditions: isolate Con1, Huh-7, 72 h
[9] = Solubility of the compound in amorphous form in phosphate buffer at pH 6.5; assay type: physicochemical
[10] = Ratio of drug level in liver to plasma in rat at 5 mg/kg, iv after 4 hrs; assay type: ADME, organism-based; design: dose 5 mg/kg, route intravenous
[11] = Plasma concentration in rat at 10 mg/kg, po after 4 hrs; assay type: ADME, organism-based; design: dose 10 mg/kg, route oral
[12] = Plasma concentration in rat at 5 mg/kg, iv after 4 hrs; assay type: ADME, organism-based; design: dose 5 mg/kg, route intravenous
[13] = Drug uptake in rat liver at 10 mg/kg, po after 4 hrs; assay type: ADME, organism-based; design: dose 10 mg/kg, route oral; conditions: read-out: Drug uptake
[14] = Permeability of the compound at pH 7.4 by PAMPA; assay type: physicochemical; conditions: read-out: permeability
Liver microsome [15] = conditions: rat, microsomes
Hepatitis C virus [16] = experiment: Antiviral activity against Hepatitis C virus H77c genotype 1a infected in human HuH7 cells after 3 days by FRET assay; assay type: functional, organism-based, Hepacivirus hominis; conditions: genotype 1a H77, Huh-7, 72 h
[17] = Plasma clearance in rat at 5 mg/kg, iv; assay type: ADME, organism-based; design: dose 5 mg/kg, route intravenous
[18] = Inhibition of human phosphodiesterase 4 by functional assay
[19] = Inhibition of Hepatitis C virus genotype 1a NS5B; design: species or system Hepatitis C virus subtype 1a
[20] = Inhibition of Hepatitis C virus genotype 5a NS5B; design: species or system Hepatitis C virus subtype 5a
Enterovirus C = experiment: Antiviral activity against Poliovirus; assay type: functional, organism-based
[21] = molecular target: T2, Voltage-gated inwardly rectifying potassium channel KCNH2 (Homo sapiens, UniProt Q12809); experiment: Inhibition of human ERG by fluorescence-based thallium flux assay
[22] = Inhibition of Hepatitis C virus genotype 3a NS5B; design: species or system Hepatitis C virus subtype 3a
CYP1A2 = CYP1A2 (Homo sapiens, UniProt P05177); experiment: Inhibition of CYP1A2 (unknown origin)
[23] = Aqueous solubility of the compound at pH 7.8; conditions: buffer
[24] = Half life in human liver microsomes; assay type: ADME
Enterovirus = experiment: Antiviral activity against Rhinovirus; assay type: functional, organism-based
[25] = test system: unidentified influenza virus; experiment: Antiviral activity against Influenza virus; assay type: functional, organism-based
[26] = Half life in rat liver microsomes; assay type: ADME
Homo sapiens = species on record: Homo sapiens; experiment: Inhibition of human phosphodiesterase 4 at 10 uM relative to control
[27] = Inhibition of Hepatitis C virus genotype 1b NS5B; design: species or system Hepatitis C virus subtype 1b
CYP2C9 = CYP2C9 (Homo sapiens, UniProt P11712); experiment: Inhibition of CYP2C9 (unknown origin)
[28] = Tmax in rat at 10 mg/kg, po; assay type: ADME, organism-based; design: dose 10 mg/kg, route oral; conditions: in vivo
[29] = Protein binding in human serum; assay type: ADME, cell-free; conditions: read-out: PB (converted)
[30] = AUC (0 to infinity) in rat at 10 mg/kg, po; assay type: ADME, organism-based; design: time infinity, dose 10 mg/kg, route oral; conditions: plasma
in vivo = conditions: rat, po, 10 mg/kg
[31] = Cmax in rat at 10 mg/kg, po; assay type: ADME, organism-based; design: dose 10 mg/kg, route oral; conditions: in vivo
CYP2C19 = CYP2C19 (Homo sapiens, UniProt P33261); experiment: Inhibition of CYP2C19 (unknown origin)
Hepatitis C virus [32] = experiment: Antiviral activity against Hepatitis C virus genotype 2a by cell-based assay; assay type: functional, organism-based, Hepacivirus hominis
[33] = Volume of distribution in rat at 5 mg/kg, iv; conditions: in vivo
[34] = Inhibition of Hepatitis C virus genotype 4a NS5B; design: species or system Hepatitis C virus subtype 4a
[35] = Half life in cynomolgus monkey liver microsomes; assay type: ADME, Macaca fascicularis, Microsome
Hepatitis C virus [36] = experiment: Antiviral activity against Hepatitis C virus genotype 1a by cell-based assay; assay type: functional, organism-based, Hepacivirus hominis; conditions: subtype 1a
[37] = Half life in rat at 5 mg/kg, iv; conditions: in vivo
Coxsackievirus = experiment: Antiviral activity against Coxsackievirus; assay type: functional, organism-based
[38] = Inhibition of HCV Con1 genotype 1b recombinant wild-type NS5B polymerase-mediated incorporation of radiolabeled nucleotides by scintillation proximity assay; design: species or system Hepatitis C virus (isolate Con1)
[39] = Half life in rat at 10 mg/kg, po; conditions: in vivo
PXR (NR1I2) = molecular target: T3, PXR (NR1I2) (Homo sapiens, UniProt O75469); experiment: Transactivation of human PXR expressed in human HepG2 cells at 5.56 uM by luciferase reporter gene assay relative to control; assay type: cell-based; conditions: HepG2 cells that express human PXR, read-out: %max
T3 sequence (O75469 whole entry): T1 sequence (O75469 whole entry)

[40] = Aqueous solubility of the compound at pH 6.5; conditions: buffer
[41] = test system: Human immunodeficiency virus; experiment: Antiviral activity against Human immunodeficiency virus; assay type: functional, organism-based; conditions: Human immunodeficiency virus 1
[42] = Aqueous solubility of the compound at pH 2.2; conditions: buffer
[43] = Half life in dog liver microsomes; assay type: ADME, Canis lupus familiaris
Cytochrome P450 3A4 = Cytochrome P450 3A4 (Homo sapiens, UniProt P08684); experiment: Inhibition of CYP3A4 (unknown origin); assay type: ADME
CYP2D6 = CYP2D6 (Homo sapiens, UniProt P10635); experiment: Inhibition of CYP2D6 (unknown origin)
Rattus norvegicus = experiment: AUC (0 to infinity) in rat at 5 mg/kg, iv; assay type: ADME, organism-based, Plasma; design: time infinity, dose 5 mg/kg, route intravenous; conditions: in vivo
[44] = molecular target: T2, Voltage-gated inwardly rectifying potassium channel KCNH2; experiment: Inhibition of human ERG by patch-clamp assay
Coronaviridae = experiment: Antiviral activity against Coronavirus; assay type: functional, organism-based
[45] = test system: Bovine viral diarrhea virus 1; experiment: Antiviral activity against Bovine viral diarrhea virus; assay type: functional, organism-based; conditions: Bovine viral diarrhea virus isolates and strains
[46] = Cmax in rat at 5 mg/kg, iv; assay type: ADME, organism-based; design: dose 5 mg/kg, route intravenous; conditions: in vivo
Hepatitis C virus [47] = experiment: Antiviral activity against Hepatitis C virus genotype 1b by cell-based assay; assay type: functional, organism-based, Hepacivirus hominis

T2 sequence (Q12809 whole entry): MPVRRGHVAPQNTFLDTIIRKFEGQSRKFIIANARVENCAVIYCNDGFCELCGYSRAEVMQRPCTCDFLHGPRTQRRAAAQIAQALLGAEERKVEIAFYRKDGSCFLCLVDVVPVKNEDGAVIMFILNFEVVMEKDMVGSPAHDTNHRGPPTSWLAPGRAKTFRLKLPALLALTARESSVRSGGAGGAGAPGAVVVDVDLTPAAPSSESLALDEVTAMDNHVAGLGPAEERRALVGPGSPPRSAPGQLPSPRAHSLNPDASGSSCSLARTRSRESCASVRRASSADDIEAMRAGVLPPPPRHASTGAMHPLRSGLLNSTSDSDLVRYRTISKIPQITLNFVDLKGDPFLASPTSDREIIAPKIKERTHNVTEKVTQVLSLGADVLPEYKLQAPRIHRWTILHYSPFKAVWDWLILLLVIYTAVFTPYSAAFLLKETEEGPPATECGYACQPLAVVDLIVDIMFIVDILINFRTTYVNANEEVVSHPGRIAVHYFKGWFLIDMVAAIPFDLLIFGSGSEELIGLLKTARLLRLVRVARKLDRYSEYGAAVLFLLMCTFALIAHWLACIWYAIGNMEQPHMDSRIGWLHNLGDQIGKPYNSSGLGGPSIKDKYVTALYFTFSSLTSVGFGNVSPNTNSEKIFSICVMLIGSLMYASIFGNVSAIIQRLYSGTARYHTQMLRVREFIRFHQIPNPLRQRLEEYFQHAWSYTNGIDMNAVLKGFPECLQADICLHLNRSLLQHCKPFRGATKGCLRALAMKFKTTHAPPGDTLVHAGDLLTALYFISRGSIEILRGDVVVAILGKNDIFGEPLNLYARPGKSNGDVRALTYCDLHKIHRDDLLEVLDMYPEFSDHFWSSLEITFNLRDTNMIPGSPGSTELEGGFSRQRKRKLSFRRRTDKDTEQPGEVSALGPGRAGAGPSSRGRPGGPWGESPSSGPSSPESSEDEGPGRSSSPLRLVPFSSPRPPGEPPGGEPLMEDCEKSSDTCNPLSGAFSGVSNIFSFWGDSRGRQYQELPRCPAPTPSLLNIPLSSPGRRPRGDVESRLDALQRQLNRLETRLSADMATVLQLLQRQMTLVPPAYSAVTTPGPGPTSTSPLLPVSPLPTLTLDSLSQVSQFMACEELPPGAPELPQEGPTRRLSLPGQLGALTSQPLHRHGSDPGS
Sequence of CYP2C19 (P33261 whole entry): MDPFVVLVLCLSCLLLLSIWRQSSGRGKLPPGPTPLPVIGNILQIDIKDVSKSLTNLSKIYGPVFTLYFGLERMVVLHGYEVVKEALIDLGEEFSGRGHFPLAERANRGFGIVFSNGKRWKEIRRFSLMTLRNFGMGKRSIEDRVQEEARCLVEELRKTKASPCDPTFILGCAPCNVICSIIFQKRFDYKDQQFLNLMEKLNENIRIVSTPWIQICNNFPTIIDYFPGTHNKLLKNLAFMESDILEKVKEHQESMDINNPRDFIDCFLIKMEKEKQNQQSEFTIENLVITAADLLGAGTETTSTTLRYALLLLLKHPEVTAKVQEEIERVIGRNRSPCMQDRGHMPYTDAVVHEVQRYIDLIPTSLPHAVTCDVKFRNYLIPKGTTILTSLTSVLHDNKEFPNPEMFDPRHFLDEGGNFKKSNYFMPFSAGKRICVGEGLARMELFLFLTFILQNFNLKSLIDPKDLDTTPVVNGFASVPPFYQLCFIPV
Sequence of CYP2C9 (P11712 whole entry): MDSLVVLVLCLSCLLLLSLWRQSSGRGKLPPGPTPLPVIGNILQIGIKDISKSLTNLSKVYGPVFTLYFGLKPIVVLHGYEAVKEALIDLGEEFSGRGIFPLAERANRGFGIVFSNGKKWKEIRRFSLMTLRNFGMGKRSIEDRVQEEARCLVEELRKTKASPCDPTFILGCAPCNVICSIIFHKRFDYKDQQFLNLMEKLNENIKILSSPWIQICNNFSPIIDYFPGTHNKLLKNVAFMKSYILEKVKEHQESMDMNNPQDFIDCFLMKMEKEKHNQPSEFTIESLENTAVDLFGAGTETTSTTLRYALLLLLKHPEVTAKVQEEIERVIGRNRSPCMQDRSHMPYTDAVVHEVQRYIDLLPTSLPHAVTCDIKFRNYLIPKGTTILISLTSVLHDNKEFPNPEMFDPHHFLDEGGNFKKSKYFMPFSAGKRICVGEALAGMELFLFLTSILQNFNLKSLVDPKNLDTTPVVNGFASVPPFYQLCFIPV
Sequence of CYP1A2 (P05177 whole entry): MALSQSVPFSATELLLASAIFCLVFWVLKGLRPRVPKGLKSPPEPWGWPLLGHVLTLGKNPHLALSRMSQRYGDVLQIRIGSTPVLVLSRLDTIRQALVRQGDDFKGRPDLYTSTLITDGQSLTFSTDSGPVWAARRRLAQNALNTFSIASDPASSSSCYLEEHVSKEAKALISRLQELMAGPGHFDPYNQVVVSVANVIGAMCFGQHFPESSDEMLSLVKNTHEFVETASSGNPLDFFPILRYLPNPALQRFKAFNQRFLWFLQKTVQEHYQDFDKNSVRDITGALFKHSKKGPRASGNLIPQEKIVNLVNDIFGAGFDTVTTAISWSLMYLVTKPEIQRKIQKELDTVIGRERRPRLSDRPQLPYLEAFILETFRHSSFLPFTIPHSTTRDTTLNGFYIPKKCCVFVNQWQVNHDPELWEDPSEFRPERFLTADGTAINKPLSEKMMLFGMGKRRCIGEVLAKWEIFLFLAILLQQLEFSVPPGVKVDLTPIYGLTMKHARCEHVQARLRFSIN
Sequence of CYP2D6 (P10635 whole entry): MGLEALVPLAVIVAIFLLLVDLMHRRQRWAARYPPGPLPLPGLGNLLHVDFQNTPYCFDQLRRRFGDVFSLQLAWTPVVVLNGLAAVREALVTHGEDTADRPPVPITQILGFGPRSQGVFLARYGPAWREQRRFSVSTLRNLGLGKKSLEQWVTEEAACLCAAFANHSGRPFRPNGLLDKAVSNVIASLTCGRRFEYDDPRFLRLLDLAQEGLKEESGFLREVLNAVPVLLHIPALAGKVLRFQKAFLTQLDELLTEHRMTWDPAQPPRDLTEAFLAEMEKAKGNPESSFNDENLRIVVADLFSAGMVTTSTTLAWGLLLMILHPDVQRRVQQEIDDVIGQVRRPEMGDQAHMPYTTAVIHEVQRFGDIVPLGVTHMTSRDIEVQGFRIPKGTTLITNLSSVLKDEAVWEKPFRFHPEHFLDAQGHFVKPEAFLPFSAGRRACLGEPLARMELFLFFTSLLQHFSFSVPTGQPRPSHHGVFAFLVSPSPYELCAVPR
Sequence of Cytochrome P450 3A4 (P08684 whole entry): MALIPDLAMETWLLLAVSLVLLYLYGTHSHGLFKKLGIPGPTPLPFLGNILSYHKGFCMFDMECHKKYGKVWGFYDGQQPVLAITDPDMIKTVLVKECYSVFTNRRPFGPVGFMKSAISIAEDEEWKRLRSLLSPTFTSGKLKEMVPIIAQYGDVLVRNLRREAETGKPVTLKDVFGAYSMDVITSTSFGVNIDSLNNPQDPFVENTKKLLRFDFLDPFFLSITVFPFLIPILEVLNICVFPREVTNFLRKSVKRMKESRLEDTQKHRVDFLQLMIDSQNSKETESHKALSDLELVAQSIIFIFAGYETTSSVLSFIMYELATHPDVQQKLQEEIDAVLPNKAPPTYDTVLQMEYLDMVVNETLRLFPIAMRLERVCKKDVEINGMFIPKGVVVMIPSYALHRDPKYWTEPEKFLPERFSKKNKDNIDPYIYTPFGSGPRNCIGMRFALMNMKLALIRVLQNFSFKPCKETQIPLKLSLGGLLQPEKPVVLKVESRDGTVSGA

COc1ccc2c(c1)C1CC1(C(=O)N1CC(O)C1)Cn1c-2c(C2CCCCC2)c2ccc(C(=O)NS(=O)(=O)N(C)C)cc21 (racemic)
EC50 [1]: > 50000 nM | AUC(0-t) at 4 h [2]: 1.42 µM·h | AUC(0-t) at 4 h [3]: 0.041 µM·h | Stability (Liver microsome [4]): 95% | CC50 [5]: > 10000 nM | EC50 (Hepatitis C virus [6]): 59 nM | concentration at 4 h [7]: 5 µM | EC50 (Hepatitis C virus [8]): 38 nM | solubility [9]: 57 µg/mL (≈ 93.9 µM) | Kp at 4 h [10]: > 200 | concentration at 4 h [11]: 0.011 µM | concentration at 4 h [12]: 0.017 µM | concentration at 4 h [13]: 8.8 µM | Papp [14]: 25 ×10⁻⁶ cm/s | Stability (Liver microsome [15]): 84% | EC50 (Hepatitis C virus [16]): 45 nM | clearance [17]: 96 mL/min/kg

COc1ccc2c(c1)[C@@H]1C[C@]1(C(=O)N1[C@@H]3CC[C@H]1CN(C)C3)Cn1c-2c(C2CCCCC2)c2ccc(C(=O)NS(=O)(=O)N(C)C)cc21 [BECLABUVIR]
IC50 [18]: 10000 nM | IC50 [19]: 3 nM | IC50 [20]: 5 nM | EC50 (Enterovirus C): > 14000 nM | IC50 [21]: 24500 nM | IC50 [22]: 2 nM | IC50 (CYP1A2): > 40000 nM | solubility [23]: > 1600 µg/mL | half-life [24]: 0.883 h | EC50 (Enterovirus): > 14000 nM | EC50 [25]: > 14000 nM | Stability (Liver microsome [4]): 90% | half-life [26]: > 3.33 h | inhibition (Homo sapiens): 57% | IC50 [27]: 4 nM | IC50 (CYP2C9): > 40000 nM | Tmax [28]: 5.3 h | fraction unbound [29]: 0.02 | AUC(0-inf) [30]: 39.3 µM·h | bioavailability (in vivo): 66% | CC50 [5]: > 10000 nM | Cmax [31]: 3.26 µM | EC50 (Hepatitis C virus [6]): 28 nM | IC50 (CYP2C19): > 40000 nM | EC50 (Hepatitis C virus [32]): 87 nM | Vd [33]: 2.7 L/kg | IC50 [34]: 20 nM | half-life [35]: 0.383 h | solubility [9]: 29 µg/mL (≈ 43.9 µM) | EC50 (Hepatitis C virus [36]): 3 nM | half-life [37]: 11.5 h | EC50 (Coxsackievirus): > 14000 nM | IC50 [38]: 20 nM | half-life [39]: 8.3 h | Papp [14]: 64 ×10⁻⁶ cm/s | Stability (Liver microsome [15]): 99% | EC50 (Hepatitis C virus [16]): 3 nM | activity at 5.56 µM (PXR (NR1I2)): 8.1% | solubility [40]: 20 µg/mL (≈ 30.3 µM) | EC50 [41]: > 14000 nM | solubility [42]: > 1600 µg/mL | half-life [43]: > 3.33 h | IC50 (Cytochrome P450 3A4): > 40000 nM | IC50 (CYP2D6): > 40000 nM | AUC (Rattus norvegicus): 30 µM·h | IC50 [44]: 12400 nM | EC50 (Coronaviridae): > 14000 nM | EC50 [45]: > 14000 nM | Cmax [46]: 12.1 µM

Cn1c(C2(NC(=O)c3ccc4c(C5CCCC5)c(-c5ncc(Br)cn5)n(C)c4c3)CCC2)nc2ccc(/C=C/C(=O)O)cc21 [DELEOBUVIR]
EC50 (Hepatitis C virus [47]): 17 nM | EC50 (Hepatitis C virus [36]): 43 nM
